This passage reports mortality results from US6713500B2, “Agent for controlling animal diseases caused by parasites” (Ishihara Sangyo Kaisha Ltd., priority 1999, dated 2004).

Where two headings read alike, the source gives them in different places.

This experiment relates to Eimeria tenella of wild type (fresh immature oocysts). In words: microbe, parasite or virus in culture. It counts as cell-based. Conditions: read-out: Mortality of oocysts (%). The procedure:
Chicks were infested with Eimeria tenella of wild type to obtain fresh immature oocycts. The obtained fresh immature oocysts were exposed to a solution of each test substance having a predetermined concentration for 10 or 30 minutes. The exposed immature oocysts were centrifuged at 1500 min^−1 for 5 minutes, and the supernatant was removed. Then, a 2% potassium bichromate aqueous solution was added, and sporulation was carried out at 25° C. for 4 days, whereupon the ratio of mature oocysts (sporulated oocysts) to the number of observed oocysts, was calculated.
Mortality of oocysts={1−(sporulation rate with exposure to test substance)/(sporulation rate without exposure to test substance)}×100

What is called mortality is the share of the test organisms that died. With `CCc1ccc(C(F)c2c(Cl)nc(C#N)n2S(=O)(=O)N(C)C)cc1` (stereo not drawn) [compound 5, 4-chloro-2-cyano-1-dimethylsulfamoyl-5-(4-ethyl-α-fluorobenzyl)imidazole], the mortality at 0.1 ppm by setting is: (10 min, Exposure time: 10 min, 0.1 ppm) 34.4%; (0.5 h, Exposure time: 30 min, 0.1 ppm) 71.3%. Further, the mortality at 1 ppm came out at 30% (10 min, Exposure time: 10 min, 1 ppm) and 75.2% (0.5 h, Exposure time: 30 min, 1 ppm). Moreover, the mortality at 10 ppm is 75% (10 min, Exposure time: 10 min, 10 ppm) and 72.6% (0.5 h, Exposure time: 30 min, 10 ppm).
Consider `Cc1ccc(-c2c(Cl)nc(C#N)n2S(=O)(=O)N(C)C)cc1` [compound 1, 4-chloro-2-cyano-1-dimethylsulfamoyl-5-(4-methylphenyl)imidazole], for which, under “10 min”, the mortality at 0.1 ppm is 43.8%, the mortality at 1 ppm was 36.9% and the mortality at 10 ppm is 42.5%. For the same molecule, under “0.5 h”, the mortality at 0.1 ppm is 51.1%, the mortality at 1 ppm turned out to be 80.3% and the mortality at 10 ppm is 87.9%.
